Where two headings read alike, the source gives them in different places.
Tests used:
[1] = test system: U87 cells (human primary glioblastoma); assay: Alamar Blue cytotoxicity assay, U87; assay type: cell-based; settings: U-87 MG; for inhibition at 300 µM: bracketed values, read-out: proliferation inhibition expressed as a percentage at highest concentration used; for IC50: U87, 24 h of treatment, read-out: IC50 based on survival of cells
Description: (§1) HeLa, U87, BICR18, EUFA30 cell lines were cultured in DMEM medium (Life Technology) supplemented with 10% fetal bovine serum (Life Technology) and 0.1% antibiotics, penicillin and streptomycin (Life Technology). Cells were grown in a humidified atmosphere of CO2/air (5/95%) at 37 °C.
(§2) Exponentially growing cells were seeded onto a 96-well plate at the density of 2 × 10^3 cells/well, cultured for 18 h, and treated with newly synthesized derivatives at concentrations 1–300 µM, or with DMSO as a control, for 24 or 48 h. Alamar Blue (Invitrogen) was added accordingly to manufacturer protocol. After 4 h, light emission at 590 nm was measured with excitation at 560 nm using a scanning multiwell spectrophotometer (DTX 880, Beckman Coulter). The experiments were carried out at least three times with three replicates for each inhibitor concentration. After background subtraction, inhibition rate, IC50 was calculated as the concentration of the component inhibiting cell growth by 50%. All the calculations were performed using Origin 9.0 software.

[2] = test system: BICR18 cells (laryngeal squamous cell carcinoma); assay: Alamar Blue cytotoxicity assay, BICR18; assay type: cell-based; settings: for inhibition at 300 µM: bracketed values, read-out: proliferation inhibition expressed as a percentage at highest concentration used; for IC50: read-out: IC50 based on survival of cells
Description: as §1, §2

[3] = test system: EUFA30 cells (non-cancerous human fibroblasts); assay: Alamar Blue cytotoxicity assay, EUFA30; assay type: cell-based; settings: Fibroblast; for inhibition at 300 µM: bracketed values, read-out: proliferation inhibition expressed as a percentage at highest concentration used
Description: as §1, §2

[4] = test system: HeLa cells (cervix adenocarcinoma); assay: Alamar Blue cytotoxicity assay, HeLa; assay type: cell-based; settings: Homo sapiens; for inhibition at 300 µM: bracketed values, read-out: proliferation inhibition expressed as a percentage at highest concentration used; for IC50: 24 h of treatment, read-out: IC50 based on survival of cells
Description: as §1, §2

[5] = test system: HeLa cells; assay: Annexin V-FITC / propidium iodide flow cytometry, HeLa; assay type: cell-based; settings: 24 h; for number of necrotic cells: 200 µM, non-treated control 5.4%
Description: as §1
(§3) The Annexin V-FITC apoptosis detection kit (BD Biosciences) was used to detect apoptosis by flow cytometry. Cells were seeded at Petri dishes, cultured for 18 h with tested agents applied for 24 h. DMSO was added as the non-treated control and camptothecin (CPT) as the positive control. Subsequently, cells were washed with PBS, resuspended in binding buffer at a concentration of 2 × 10^6 cells/mL, and anti-Annexin V FITC-conjugated antibody and propidium iodide were added to 100 µL aliquots. The mixtures were incubated for 15 min at room temperature, supplemented with binding buffer to 500 µL and processed by BD FACSCalibur (BD Biosciences). Data were analyzed in Flowing Software version 2.5.1 (Flowing Software, http://www.uskonaskel.fi/flowingsoftware).

[6] = test system: EUFA30 cells; assay: Annexin V-FITC / propidium iodide flow cytometry, EUFA30; assay type: cell-based, human; settings: 24 h
Description: as §1, §3

[7] = test system: EUFA30, HeLa, BICR18, U87 cells; assay: Alamar Blue cytotoxicity assay, statements over all tested cell lines; assay type: cell-based; settings: Homo sapiens, concentrations 1-300 µM, group range = lowest to highest value, read-out: IC50 across the tested cell lines
Description: as §1, §2

[8] = EUFA30, 200 µM, non-treated control 0.3%
[9] = EUFA30, 200 µM, non-treated control 0.4%
[10] = EUFA30, 200 µM, non-treated control 5.7%
[11] = EUFA30, positive control, 10 μM

Row | melting point | Structure (SMILES) | inhibition at 300 µM ([1]; U87, 24 h) [%] | inhibition at 300 µM ([1]; U87, 48 h) [%] | inhibition at 300 µM ([2]; BICR18, 24 h) [%] | inhibition at 300 µM ([2]; BICR18, 48 h) [%] | inhibition at 300 µM ([3]; EUFA30, 24 h) [%] | inhibition at 300 µM ([4]; 24 h) [%] | inhibition at 300 µM ([3]; EUFA30, 48 h) [%] | inhibition at 300 µM ([4]; 48 h) [%] | also measured
1 | 242 to 243 °C | CCOC(=O)c1cc2c(cc1C(=O)OCC)C(=O)Nc1ccccc1NC2=O [Compound 3k, diethyl 6,11-dioxo-5,6,11,12-tetrahydrodibenzo[b,f][1,4]diazocine-8,9-dicarboxylate] | 37.2 | 3.1 | 16.8 | 5.6 | 36.7 | 28.2 |  |  | 
2 | 241 to 242 °C | CN1C(=O)c2cscc2C(=O)Nc2ccccc21 [Compound 3i, 5-methyl-5,10-dihydrobenzo[b]thieno[3,4-f][1,4]diazocine-4,11-dione] | 36.6 | 2.8 | 24 |  | 29.4 | 14.8 | 1.5 | 1.6 | 
3 | 265 to 266 °C | CN1C(=O)c2ccccc2C(=O)N(C)c2ccccc21 [Compound 3l, 5,12-dimethyl-5,12-dihydrodibenzo[b,f][1,4]diazocine-6,11-dione] | 39 |  | 22.1 |  | 38.1 | 29.5 | 19.5 | 2.8 | 
4 |  | CN1C(=O)c2cc(Cl)c(Cl)cc2C(=O)Nc2ccccc21 [Compound 3g, 8,9-dichloro-5-methyl-5,12-dihydrodibenzo[b,f][1,4]diazocine-6,11-dione] |  | 2.4 |  | 12.3 | 41.6 | 43.1 | 29.5 | 5.3 | number of necrotic cells [5]: 8.8%; IC50 [1]: 323 ± 23.9 µM; dead cell fraction: early apoptosis [6, 8]: 5.0%; dead cell fraction: late apoptosis [6, 9]: 1.5%; dead cell fraction: necrosis [6, 10]: 6.8%; IC50 [7]: 93.7 to 323 µM; IC50 ([2]; BICR18, 24 h of treatment): 266 ± 27.6 µM
5 | 244 to 245 °C | O=C1CCC(=O)Nc2ccccc2N1 [Compound 6, 1,3,4,6-tetrahydrobenzo[b][1,4]diazocine-2,5-dione] | 19.6 |  | 11.3 |  | 29.4 | 21.5 | 14 | 4.3 | 
6 |  | CC(=O)N1C(=O)c2ccccc2C(=O)N(Cc2ccccc2)c2ccccc21 [Compound 3o, 5-acetyl-12-benzyl-5,12-dihydrodibenzo[b,f][1,4]diazocine-6,11-dione] |  | 33.8 |  |  |  |  | 41.8 | 33.4 | number of necrotic cells [5]: 27.7%; IC50 [1]: 240 ± 6.1 µM; dead cell fraction: early apoptosis [6, 8]: 9.5%; dead cell fraction: late apoptosis [6, 9]: 6.4%; dead cell fraction: necrosis [6, 10]: 0.8%; IC50 [7]: 93.7 to 323 µM; IC50 ([2]; BICR18, 24 h of treatment): 121 ± 11.4 µM; IC50 ([2]; BICR18, 48 h of treatment, N.A. = not active): 294 ± 3.2 µM; IC50 ([3]; EUFA30, 24 h of treatment, read-out: IC50 based on survival of cells): 155 ± 14.6 µM; IC50 [4]: 169 ± 13.4 µM
7 |  | CCOC(=O)CN1C(=O)c2cc(Cl)c(Cl)cc2C(=O)N(C)c2ccccc21 [Compound 3n, ethyl 2-(8,9-dichloro-12-methyl-6,11-dioxo-11,12-dihydrodibenzo[b,f][1,4]diazocin-5(6H)-yl)acetate] | 30.7 |  | 20.9 |  | 41.5 |  |  |  | number of necrotic cells [5]: 11.3%; dead cell fraction: early apoptosis [6, 8]: 7.8%; dead cell fraction: late apoptosis [6, 9]: 1.4%; dead cell fraction: necrosis [6, 10]: 1.9%; IC50 [7]: 93.7 to 323 µM; IC50 [4]: 311 ± 14.1 µM
8 | 206 to 207 °C | CN1C(=O)c2ccccc2C(=O)Nc2ccccc21 [Compound 3e, 5-methyl-5,12-dihydrodibenzo[b,f][1,4]diazocine-6,11-dione] | 34.1 |  | 22.7 |  | 31.6 | 19.8 | 17.5 | 5.7 | 
9 | 243 to 244 °C | O=C1Nc2ccccc2NC(=O)c2cc([N+](=O)[O-])ccc21 [Compound 3d, 8-nitro-5,12-dihydrodibenzo[b,f][1,4]diazocine-6,11-dione] | 27.5 |  | 25.1 | 2.5 | 9.2 | 23.4 | 4.2 | 3.9 | 
10 | 230 °C (dec.) | O=C1Nc2ccc([N+](=O)[O-])cc2NC(=O)c2ccccc21 [Compound 3b, 2-nitro-5,12-dihydrodibenzo[b,f][1,4]diazocine-6,11-dione] | 10.4 |  | 2.2 |  | 31 | 33.2 | 18.6 | 4.7 | 
11 | 156 to 157 °C | O=C(c1ccccc1)c1ccc2c(c1)NC(=O)c1ccccc1C(=O)N2 [Compound 3c, 2-benzoyl-5,12-dihydrodibenzo[b,f][1, 4]diazocine-6,11-dione] | 15 |  | 10 |  | 28.8 | 14.5 |  |  | 
12 |  | CC[C@@]1(O)C(=O)OCc2c1cc1n(c2=O)Cc2cc3ccccc3nc2-1 [camptothecin, reference compound] |  |  |  |  |  |  |  |  | necrotic cells ([5]; positive control, 10 μM): 31.2%; dead cell fraction: early apoptosis [6, 11]: 4.1%; dead cell fraction: late apoptosis [6, 11]: 6.8%; dead cell fraction: necrosis [6, 11]: 18.7%
13 | 205 to 206 °C | O=C1Nc2ccccc2N(Cc2ccccc2)C(=O)c2ccccc21 [Compound 3j, 5-benzyl-5,12-dihydrodibenzo[b,f][1,4]diazocine-6,11-dione] | 33 |  | 42.2 | 6.1 | 33.2 | 34.3 | 32.6 | 3.3 | IC50 [7]: > 300 µM
14 | 195 to 196 °C | Nc1ccccc1N1C(=O)c2ccccc2C1=O [Compound 10, 2-(2-aminophenyl)isoindoline-1,3-dione] | 22.9 |  | 11.4 |  | 25.6 | 4.9 |  |  | 
15 | 154 to 155 °C | CN(C)CCN1C(=O)c2ccccc2C(=O)N(Cc2ccccc2)c2ccccc21 [Compound 3m, 5-benzyl-12-(2-(dimethylamino)ethyl)-5,12-dihydrodibenzo[b,f][1,4]diazocine-6,11-dione] | 36.8 | 4.1 | 30.1 | 4.7 | 42.2 | 23.4 | 9.9 |  | 
16 | 286 to 287 °C | O=C1Nc2ccccc2NC(=O)c2ccccc21 [Compound 3a, 5,12-dihydrodibenzo[b,f][1,4]diazocine-6,11-dione] | 17.6 |  | 7.1 |  | 21.2 | 20.7 | 9 | 1.5 | 

From article PMC7356613, “Unsymmetrically-Substituted 5,12-dihydrodibenzo[b,f][1,4]diazocine-6,11-dione Scaffold—A Useful Tool for Bioactive Molecules Design” (Molecules, 2020)
